Assay results from PubChem BioAssay (NCI).
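How tested: cells in 96-well plates exposed to compound for 48 hours at five concentrations. GI50 marks 50% less growth. TGI denotes the concentration required for complete inhibition of growth.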

Tests used:
Assay in all cases: NCI-60 cell line screen, 48 h
[1] = tested on: 786-0 renal
[2] = tested on: A498 renal
[3] = tested on: A549 NSCLC
[4] = tested on: ACHN renal
[5] = tested on: BT-549 breast
[6] = tested on: CAKI-1 renal
[7] = tested on: CCRF-CEM leukemia
[8] = tested on: COLO 205 colon
[9] = tested on: DU-145 prostate
[10] = tested on: EKVX NSCLC
[11] = tested on: HCC-2998 colon
[12] = tested on: HCT-116 colon
[13] = tested on: HCT-15 colon
[14] = tested on: HL-60(TB) leukemia
[15] = tested on: HOP-62 NSCLC
[16] = tested on: HOP-92 NSCLC
[17] = tested on: HS 578T breast
[18] = tested on: HT29 colon
[19] = tested on: IGROV1 ovarian
[20] = tested on: K-562 leukemia
[21] = tested on: KM12 colon
[22] = tested on: LOX IMVI melanoma
[23] = tested on: M14 melanoma
[24] = tested on: MALME-3M melanoma
[25] = tested on: MCF7 breast
[26] = tested on: MDA-MB-231 breast
[27] = tested on: MDA-MB-435
[28] = tested on: MOLT-4 leukemia
[29] = tested on: NCI-H226 lung
[30] = tested on: NCI-H23 lung
[31] = tested on: NCI-H460 lung
[32] = tested on: NCI-H522 lung
[33] = tested on: NCI/ADR-RES ovarian
[34] = tested on: OVCAR-3 ovarian
[35] = tested on: OVCAR-4 ovarian
[36] = tested on: OVCAR-5 ovarian
[37] = tested on: OVCAR-8 ovarian
[38] = tested on: PC-3 prostate
[39] = tested on: RPMI-8226 leukemia
[40] = tested on: RXF 393 renal
[41] = tested on: SF-268 CNS
[42] = tested on: SF-295 CNS
[43] = tested on: SF-539 CNS
[44] = tested on: SK-MEL-2 melanoma
[45] = tested on: SK-MEL-28 melanoma
[46] = tested on: SK-MEL-5 melanoma
[47] = tested on: SK-OV-3 ovarian
[48] = tested on: SN12C renal
[49] = tested on: SNB-19 CNS
[50] = tested on: SNB-75 CNS
[51] = tested on: SR leukemia
[52] = tested on: SW-620 colon
[53] = tested on: T-47D breast
[54] = tested on: TK-10 renal
[55] = tested on: U251 CNS
[56] = tested on: UACC-257 melanoma
[57] = tested on: UACC-62 melanoma
[58] = tested on: UO-31 renal

## COc1ccc(/C=N/NC(=O)c2[nH]c3ccc(Br)cc3c2-c2ccccc2)s1
[1]
  GI50: 0.152 µM
  TGI: > 100 µM
[2]
  GI50: 33.8 µM
  TGI: > 100 µM
[3]
  GI50: 0.16 µM
  TGI: > 100 µM
[4]
  GI50: 0.169 µM
  TGI: > 52.8 µM
[5]
  GI50: 0.0885 µM
  TGI: 0.367 µM
[6]
  GI50: 0.168 µM
  TGI: > 57.3 µM
[7]
  GI50: 0.121 µM
  TGI: > 100 µM
[8]
  GI50: 0.195 µM
  TGI: 0.375 µM
[9]
  GI50: 0.135 µM
  TGI: 45.7 µM
[10]
  GI50: 3.55 µM
  TGI: > 100 µM
[11]
  GI50: 0.349 µM
  TGI: > 71.6 µM
[12]
  GI50: 0.103 µM
[13]
  GI50: 0.141 µM
  TGI: > 37 µM
[14]
  GI50: 0.0778 µM
  TGI: 2.69 µM
[15]
  GI50: 0.455 µM
  TGI: > 87.8 µM
[16]
  GI50: 1.28 µM
  TGI: > 100 µM
[17]
  GI50: 1.14 µM
  TGI: > 31.4 µM
[18]
  GI50: 0.0846 µM
  TGI: 3.29 µM
[19]
  GI50: 0.123 µM
  TGI: 25.2 µM
[20]
  GI50: 0.113 µM
  TGI: > 100 µM
[21]
  GI50: 0.301 µM
  TGI: > 60.5 µM
[22]
  GI50: 0.0384 µM
  TGI: > 100 µM
[23]
  GI50: 0.142 µM
  TGI: > 100 µM
[24]
  GI50: 0.148 µM
  TGI: > 70.3 µM
[25]
  GI50: 0.11 µM
  TGI: 14.4 µM
[26]
  GI50: 0.336 µM
  TGI: 15.7 µM
[27]
  GI50: 0.0656 µM
  TGI: 0.153 µM
[28]
  GI50: 0.113 µM
  TGI: > 100 µM
[29]
  GI50: 0.115 µM
  TGI: 30.2 µM
[30]
  GI50: 0.124 µM
  TGI: > 47.7 µM
[31]
  GI50: 0.246 µM
  TGI: 3.63 µM
[32]
  GI50: 0.0193 µM
  TGI: 0.0544 µM
[33]
  GI50: 0.0398 µM
  TGI: 4.36 µM
[34]
  GI50: 0.249 µM
  TGI: 0.823 µM
[35]
  GI50: 0.224 µM
  TGI: 57.6 µM
[36]
  GI50: 0.136 µM
  TGI: > 100 µM
[37]
  GI50: 0.0593 µM
[38]
  GI50: 0.263 µM
  TGI: > 89.4 µM
[39]
  GI50: 0.118 µM
  TGI: > 100 µM
[40]
  GI50: 0.299 µM
  TGI: 0.91 µM
[41]
  GI50: 0.532 µM
  TGI: > 100 µM
[42]
  GI50: 0.106 µM
  TGI: 15.1 µM
[43]
  GI50: 0.0724 µM
  TGI: 0.206 µM
[44]
  GI50: 0.0935 µM
  TGI: 36.4 µM
[45]
  GI50: 0.745 µM
  TGI: > 100 µM
[46]
  GI50: 0.101 µM
  TGI: 0.394 µM
[47]
  GI50: 0.219 µM
  TGI: 99.4 µM
[48]
  GI50: 0.116 µM
  TGI: > 42.1 µM
[49]
  GI50: 0.275 µM
  TGI: > 95.2 µM
[50]
  GI50: 0.148 µM
  TGI: 20 µM
[51]
  GI50: 0.102 µM
  TGI: > 100 µM
[52]
  GI50: 0.147 µM
  TGI: > 100 µM
[53]
  GI50: 7.1 µM
  TGI: > 100 µM
[54]
  GI50: 3.72 µM
  TGI: > 75.1 µM
[55]
  GI50: 0.259 µM
  TGI: > 100 µM
[56]
  GI50: 0.283 µM
  TGI: > 100 µM
[57]
  GI50: 0.146 µM
  TGI: > 51.5 µM
[58]
  GI50: 0.188 µM
  TGI: > 100 µM

## CC(=O)Nc1cc(F)cc(-c2ccc3[nH]cc(-c4ccccc4)c3n2)c1
[1]
  GI50: 2.22 µM
  TGI: 5.65 µM
[2]
  GI50: 3.75 µM
  TGI: 12.7 µM
[3]
  GI50: 3.6 µM
  TGI: 16.7 µM
[4]
  GI50: 4.08 µM
  TGI: 14.3 µM
[5]
  GI50: 4.78 µM
  TGI: 17 µM
[6]
  GI50: 3.32 µM
  TGI: 12.2 µM
[7]
  GI50: 3.42 µM
  TGI: 17.9 µM
[8]
  GI50: 2.17 µM
  TGI: 4.69 µM
[9]
  GI50: 5.52 µM
  TGI: 17.9 µM
[10]
  GI50: 4.71 µM
  TGI: 21.5 µM
[11]
  GI50: 2.11 µM
  TGI: 4.71 µM
[12]
  GI50: 3.33 µM
  TGI: 12 µM
[13]
  GI50: 2.08 µM
  TGI: 5.05 µM
[14]
  GI50: 2.72 µM
  TGI: 10.7 µM
[15]
  GI50: 4.2 µM
  TGI: 17.4 µM
[16]
  GI50: 2.97 µM
  TGI: 9.63 µM
[17]
  GI50: 5.01 µM
  TGI: 47.7 µM
[18]
  GI50: 2.21 µM
  TGI: 5.15 µM
[19]
  GI50: 5.04 µM
  TGI: 21.1 µM
[20]
  GI50: 2.79 µM
  TGI: 9.11 µM
[21]
  GI50: 1.87 µM
  TGI: 3.56 µM
[22]
  GI50: 1.75 µM
  TGI: 3.39 µM
[23]
  GI50: 2.65 µM
  TGI: 7.85 µM
[24]
  GI50: 3.5 µM
  TGI: 12.8 µM
[25]
  GI50: 2.9 µM
  TGI: 12.3 µM
[26]
  GI50: 3.46 µM
  TGI: 12.7 µM
[27]
  GI50: 4.05 µM
  TGI: 15.5 µM
[28]
  GI50: 2.26 µM
  TGI: 10.4 µM
[29]
  GI50: 6.31 µM
  TGI: 23 µM
[30]
  GI50: 4.98 µM
  TGI: 20 µM
[31]
  GI50: 3.37 µM
  TGI: 14.6 µM
[32]
  GI50: 1.83 µM
  TGI: 4.11 µM
[33]
  GI50: 3.99 µM
  TGI: 23 µM
[34]
  GI50: 5.08 µM
  TGI: 17.8 µM
[35]
  GI50: 5.44 µM
  TGI: 18.6 µM
[36]
  GI50: 4.92 µM
  TGI: 22.1 µM
[37]
  GI50: 6.16 µM
  TGI: 44.3 µM
[38]
  GI50: 3.33 µM
  TGI: 16 µM
[39]
  GI50: 3.08 µM
  TGI: 19.2 µM
[40]
  GI50: 2.5 µM
  TGI: 7.97 µM
[41]
  GI50: 5.12 µM
  TGI: 22 µM
[42]
  GI50: 2.1 µM
  TGI: 5.16 µM
[43]
  GI50: 2.97 µM
  TGI: 10.7 µM
[44]
  GI50: 2.46 µM
  TGI: 6.8 µM
[45]
  GI50: 2.43 µM
  TGI: 6.13 µM
[46]
  GI50: 4.07 µM
  TGI: 15 µM
[47]
  GI50: 6.84 µM
  TGI: 21.3 µM
[48]
  GI50: 6.7 µM
  TGI: 21.9 µM
[49]
  GI50: 3.9 µM
  TGI: 13.9 µM
[50]
  GI50: 4.93 µM
  TGI: 18.1 µM
[51]
  GI50: 2.75 µM
  TGI: 8.4 µM
[52]
  GI50: 3.31 µM
  TGI: 25.3 µM
[53]
  GI50: 4.77 µM
  TGI: 29.1 µM
[54]
  GI50: 6 µM
  TGI: 18.3 µM
[55]
  GI50: 3.73 µM
  TGI: 16.1 µM
[56]
  GI50: 2.32 µM
  TGI: 5.96 µM
[57]
  GI50: 3.34 µM
  TGI: 11.9 µM
[58]
  GI50: 3.88 µM
  TGI: 14.8 µM
